What all share (assay type): in vivo
For assay [1], the system named is Echinochloa oryzacola Vasing. The assay is described as follows: Test Example 1: herbicidal activity, application before weed generation in submerged conditions. The settings on record: Application herbicide amount 320 g/ha; Seventeenth Table. In outline:
(§1)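 Pre-emergence application to water surface of submerged pots (4 cm depth, alluvial soil) on sowing day, with 2.5-leaf rice transplanted; emulsion diluted to g/ha rates. Grown in greenhouse at 25–30 °C; 0–5 herbicidal/crop-effect score after three weeks.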

The test system of another assay is Monochoria vaginalis. The assay is described as above. The settings on record: Application herbicide amount 320 g/ha; Seventeenth Table. In outline:
as §1

The next assay deals with Scirpus juncoides. The description is as above. The conditions noted are these: Application herbicide amount 320 g/ha; Seventeenth Table. In outline:
as §1

The test system of the next assay is Cyperus difformis. The assay is described as follows: Test Example 3: herbicidal effect by application to foliage (Wagner pot, water depth 0.1-0.5 cm). The settings on record: Nineteenth Table; application to foliage; application herbicide amount 320 g/ha. An outline of the steps:
(§2)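 Post-emergence foliar application at a stated g/ha rate to plants grown 14 days from seed in alluvial soil, greenhouse 25–30 °C. Visual score after 3 weeks: 0 (≤5% effect) through 5 (≥90%).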

The test system of assay [2] is Echinochloa crus-galli var. crus-galli. Described as above. The settings on record: Nineteenth Table; application to foliage; application herbicide amount 320 g/ha. An outline of the steps: as §2
The next assay concerns Leptochloa chinensis. The description is as above. The conditions noted are these: Nineteenth Table; application to foliage; application herbicide amount 320 g/ha. An outline of the steps:
as §2

The values below come from patent US9708314B2, “Heterocyclic amide compound” (NISSAN CHEMICAL INDUSTRIES, LTD., priority 2013, dated 2017).

Structures are written as SMILES.

For the molecule `Cn1nnnc1NC(=O)c1ccc(C(F)(F)F)n2c(C3CCCC3)nnc12` [2-021], the “A: Echinochloa oryzicola Vasing. (herbicidal effect grade)” value in assay [1] was 5 (Herbicidal ratio of 90% or more (almost completely withered)). For the same molecule, the “C: Monochoria vaginalis (herbicidal effect grade)” value (shortened to “C: Monochoria vaginalis”) in the assay on Monochoria vaginalis is reported as 5 (Herbicidal ratio of 90% or more (almost completely withered)). For the same molecule, the “B: Scirpus juncoides (herbicidal effect grade)” value (shortened to “B: Scirpus juncoides”) in the assay on Scirpus juncoides was 5 (Herbicidal ratio of 90% or more (almost completely withered)). Besides, the “E (herbicidal effect grade)” value in the assay with Cyperus difformis is recorded as 5 (Herbicidal ratio of 90% or more (almost completely withered)). Besides, the “H (herbicidal effect grade)” value in assay [2] is recorded as 5 (Herbicidal ratio of 90% or more (almost completely withered)). For the same molecule, in the assay on Leptochloa chinensis, the “D (herbicidal effect grade)” value was 5 (Herbicidal ratio of 90% or more (almost completely withered)).
Consider `CCN(CC)c1nnc2c(C(=O)Nc3nnco3)ccc(C(F)(F)F)n12` [1-138], for which, in assay [1], the “A: Echinochloa oryzicola Vasing. (herbicidal effect grade)” value is 5 (Herbicidal ratio of 90% or more (almost completely withered)). Besides, in the assay on Monochoria vaginalis, the “C: Monochoria vaginalis” value is 4 (Herbicidal ratio of 70% or more and less than 90%). Also, the “B: Scirpus juncoides” value with Scirpus juncoides is on record as 5 (Herbicidal ratio of 90% or more (almost completely withered)). Moreover, the “E (herbicidal effect grade)” value in the assay with Cyperus difformis was 4 (Herbicidal ratio of 70% or more and less than 90%). Moreover, the “H (herbicidal effect grade)” value in assay [2] is on record as 5 (Herbicidal ratio of 90% or more (almost completely withered)). The “D (herbicidal effect grade)” value in the assay on Leptochloa chinensis is listed as 5 (Herbicidal ratio of 90% or more (almost completely withered)).
As for `CCOCc1nnc2c(C(=O)Nc3nnnn3C)ccc(C(F)(F)F)n12` [2-026], the “A: Echinochloa oryzicola Vasing. (herbicidal effect grade)” value in assay [1] is 5 (Herbicidal ratio of 90% or more (almost completely withered)). In addition, the “C: Monochoria vaginalis” value with Monochoria vaginalis is 4 (Herbicidal ratio of 70% or more and less than 90%). Further, the “B: Scirpus juncoides” value in the assay with Scirpus juncoides is on record as 5 (Herbicidal ratio of 90% or more (almost completely withered)). For the same molecule, the “E (herbicidal effect grade)” value in the assay with Cyperus difformis was 5 (Herbicidal ratio of 90% or more (almost completely withered)). In addition, the “H (herbicidal effect grade)” value in assay [2] is recorded as 5 (Herbicidal ratio of 90% or more (almost completely withered)). The “D (herbicidal effect grade)” value in the assay on Leptochloa chinensis was 5 (Herbicidal ratio of 90% or more (almost completely withered)).
As to `CCC(C)c1nnc2c(C(=O)Nc3nnnn3C)ccc(C(F)(F)F)n12` (stereo not drawn) [2-016], the “A: Echinochloa oryzicola Vasing. (herbicidal effect grade)” value in assay [1] was 5 (Herbicidal ratio of 90% or more (almost completely withered)). In addition, in the assay with Monochoria vaginalis, the “C: Monochoria vaginalis” value is listed as 5 (Herbicidal ratio of 90% or more (almost completely withered)). Further, the “B: Scirpus juncoides” value in the assay with Scirpus juncoides is 5 (Herbicidal ratio of 90% or more (almost completely withered)). The “E (herbicidal effect grade)” value in the assay with Cyperus difformis is listed as 5 (Herbicidal ratio of 90% or more (almost completely withered)). Moreover, the “H (herbicidal effect grade)” value in assay [2] is 5 (Herbicidal ratio of 90% or more (almost completely withered)). Further, the “D (herbicidal effect grade)” value in the assay with Leptochloa chinensis is recorded as 5 (Herbicidal ratio of 90% or more (almost completely withered)).
With `Cn1nnnc1NC(=O)c1ccc(C(F)(F)F)n2c(Cl)nnc12` [2-008], the “A: Echinochloa oryzicola Vasing. (herbicidal effect grade)” value in assay [1] is 4 (Herbicidal ratio of 70% or more and less than 90%). In addition, in the assay on Monochoria vaginalis, the “C: Monochoria vaginalis” value is 4 (Herbicidal ratio of 70% or more and less than 90%). The “B: Scirpus juncoides” value in the assay on Scirpus juncoides was 4 (Herbicidal ratio of 70% or more and less than 90%). Further, the “E (herbicidal effect grade)” value in the assay with Cyperus difformis was 4 (Herbicidal ratio of 70% or more and less than 90%). Also, the “H (herbicidal effect grade)” value in assay [2] was 4 (Herbicidal ratio of 70% or more and less than 90%). Moreover, the “D (herbicidal effect grade)” value in the assay with Leptochloa chinensis is 5 (Herbicidal ratio of 90% or more (almost completely withered)).
As to `CC(C)c1nnc2c(C(=O)N(C)c3nnnn3C)ccc(C(F)(F)F)n12` [2-023], the “A: Echinochloa oryzicola Vasing. (herbicidal effect grade)” value in assay [1] was 2 (Herbicidal ratio of 20% or more and less than 40%). The “C: Monochoria vaginalis” value in the assay with Monochoria vaginalis was 0 (Herbicidal ratio of 5% or less (almost no effect)). Also, the “B: Scirpus juncoides” value in the assay on Scirpus juncoides is 1 (Herbicidal ratio of 5% or more and less than 20%). The “E (herbicidal effect grade)” value with Cyperus difformis is listed as 0 (Herbicidal ratio of 5% or less (almost no effect)). Also, the “H (herbicidal effect grade)” value in assay [2] was 4 (Herbicidal ratio of 70% or more and less than 90%). Also, the “D (herbicidal effect grade)” value with Leptochloa chinensis is 1 (Herbicidal ratio of 5% or more and less than 20%).
As to `CC(C)c1nnc2c(C(=O)Nc3nnc(C[S+](C)[O-])o3)ccc(C(F)(F)F)n12` (stereo not drawn) [1-143], the “A: Echinochloa oryzicola Vasing. (herbicidal effect grade)” value in assay [1] is 0 (Herbicidal ratio of 5% or less (almost no effect)). For the same molecule, in the assay on Monochoria vaginalis, the “C: Monochoria vaginalis” value was 2 (Herbicidal ratio of 20% or more and less than 40%). The “B: Scirpus juncoides” value in the assay with Scirpus juncoides is given as 0 (Herbicidal ratio of 5% or less (almost no effect)). Moreover, the “E (herbicidal effect grade)” value in the assay with Cyperus difformis is 4 (Herbicidal ratio of 70% or more and less than 90%). Further, in assay [2], the “H (herbicidal effect grade)” value is 4 (Herbicidal ratio of 70% or more and less than 90%). For the same molecule, the “D (herbicidal effect grade)” value in the assay with Leptochloa chinensis is 2 (Herbicidal ratio of 20% or more and less than 40%).
On to `Cn1nnnc1NC(=O)c1ccc(C(F)(F)F)n2c(-c3ccccc3)nnc12` [2-007], for which, in assay [1], the “A: Echinochloa oryzicola Vasing. (herbicidal effect grade)” value is 5 (Herbicidal ratio of 90% or more (almost completely withered)). Besides, the “C: Monochoria vaginalis” value in the assay on Monochoria vaginalis is on record as 5 (Herbicidal ratio of 90% or more (almost completely withered)). Moreover, the “B: Scirpus juncoides” value in the assay with Scirpus juncoides is listed as 5 (Herbicidal ratio of 90% or more (almost completely withered)). In addition, the “E (herbicidal effect grade)” value in the assay on Cyperus difformis was 5 (Herbicidal ratio of 90% or more (almost completely withered)). For the same molecule, in assay [2], the “H (herbicidal effect grade)” value is given as 5 (Herbicidal ratio of 90% or more (almost completely withered)). For the same molecule, in the assay with Leptochloa chinensis, the “D (herbicidal effect grade)” value was 5 (Herbicidal ratio of 90% or more (almost completely withered)).
With `CSCc1nnc2c(C(=O)Nc3nnco3)ccc(C(F)(F)F)n12` [1-146], in assay [1], the “A: Echinochloa oryzicola Vasing. (herbicidal effect grade)” value was 5 (Herbicidal ratio of 90% or more (almost completely withered)). Moreover, in the assay on Monochoria vaginalis, the “C: Monochoria vaginalis” value is 5 (Herbicidal ratio of 90% or more (almost completely withered)). The “B: Scirpus juncoides” value in the assay with Scirpus juncoides is reported as 5 (Herbicidal ratio of 90% or more (almost completely withered)). Further, the “E (herbicidal effect grade)” value with Cyperus difformis is 4 (Herbicidal ratio of 70% or more and less than 90%). Moreover, the “H (herbicidal effect grade)” value in assay [2] is listed as 5 (Herbicidal ratio of 90% or more (almost completely withered)). Also, in the assay with Leptochloa chinensis, the “D (herbicidal effect grade)” value is reported as 5 (Herbicidal ratio of 90% or more (almost completely withered)).
Take `C=CCSc1nnc2c(C(=O)Nc3nnc(C)o3)ccc(C(F)(F)F)n12` [1-064]: in assay [1], the “A: Echinochloa oryzicola Vasing. (herbicidal effect grade)” value is 5 (Herbicidal ratio of 90% or more (almost completely withered)). Besides, in the assay on Monochoria vaginalis, the “C: Monochoria vaginalis” value was 3 (Herbicidal ratio of 40% or more and less than 70%). For the same molecule, in the assay with Scirpus juncoides, the “B: Scirpus juncoides” value was 4 (Herbicidal ratio of 70% or more and less than 90%). In the assay with Cyperus difformis, the “E (herbicidal effect grade)” value is 4 (Herbicidal ratio of 70% or more and less than 90%). Further, the “H (herbicidal effect grade)” value in assay [2] is on record as 5 (Herbicidal ratio of 90% or more (almost completely withered)). Moreover, the “D (herbicidal effect grade)” value in the assay on Leptochloa chinensis is 4 (Herbicidal ratio of 70% or more and less than 90%).
Regarding `Cn1nnnc1NC(=O)c1ccc(C(F)(F)F)n2c(COCC(F)(F)F)nnc12` [2-015], the “A: Echinochloa oryzicola Vasing. (herbicidal effect grade)” value in assay [1] was 5 (Herbicidal ratio of 90% or more (almost completely withered)). Moreover, the “C: Monochoria vaginalis” value in the assay on Monochoria vaginalis is reported as 5 (Herbicidal ratio of 90% or more (almost completely withered)). In addition, in the assay on Scirpus juncoides, the “B: Scirpus juncoides” value is given as 5 (Herbicidal ratio of 90% or more (almost completely withered)). In the assay with Cyperus difformis, the “E (herbicidal effect grade)” value is listed as 5 (Herbicidal ratio of 90% or more (almost completely withered)). For the same molecule, the “H (herbicidal effect grade)” value in assay [2] is given as 5 (Herbicidal ratio of 90% or more (almost completely withered)). The “D (herbicidal effect grade)” value in the assay on Leptochloa chinensis is recorded as 5 (Herbicidal ratio of 90% or more (almost completely withered)).
As to `CCN(C)c1nnc2c(C(=O)Nc3nnco3)ccc(C(F)(F)F)n12` [1-137], the “A: Echinochloa oryzicola Vasing. (herbicidal effect grade)” value in assay [1] is 5 (Herbicidal ratio of 90% or more (almost completely withered)). Moreover, the “C: Monochoria vaginalis” value in the assay with Monochoria vaginalis is on record as 5 (Herbicidal ratio of 90% or more (almost completely withered)). In addition, the “B: Scirpus juncoides” value in the assay with Scirpus juncoides is given as 5 (Herbicidal ratio of 90% or more (almost completely withered)). The “E (herbicidal effect grade)” value in the assay on Cyperus difformis was 4 (Herbicidal ratio of 70% or more and less than 90%). The “H (herbicidal effect grade)” value in assay [2] was 5 (Herbicidal ratio of 90% or more (almost completely withered)). The “D (herbicidal effect grade)” value in the assay with Leptochloa chinensis is given as 5 (Herbicidal ratio of 90% or more (almost completely withered)).
On to `COCCNc1nnc2c(C(=O)Nc3nnc(C)o3)ccc(C(F)(F)F)n12` [1-109], for which the “A: Echinochloa oryzicola Vasing. (herbicidal effect grade)” value in assay [1] is listed as 0 (Herbicidal ratio of 5% or less (almost no effect)). In addition, the “C: Monochoria vaginalis” value in the assay with Monochoria vaginalis is 0 (Herbicidal ratio of 5% or less (almost no effect)). In addition, the “B: Scirpus juncoides” value with Scirpus juncoides is 2 (Herbicidal ratio of 20% or more and less than 40%). Also, in the assay with Cyperus difformis, the “E (herbicidal effect grade)” value is 3 (Herbicidal ratio of 40% or more and less than 70%). In addition, in assay [2], the “H (herbicidal effect grade)” value is recorded as 5 (Herbicidal ratio of 90% or more (almost completely withered)). Moreover, in the assay on Leptochloa chinensis, the “D (herbicidal effect grade)” value is given as 5 (Herbicidal ratio of 90% or more (almost completely withered)).
